Data reported in US20260256780A1, “COMPOSITIONS FOR INDUCING RAS GTP HYDROLYSIS AND USES THEREOF” (Revolution Medicines, Inc., priority 2023, published 2026).

Columns and labels:
[1] = tested on: KRASG12D-mutant cell line AsPC-1; test: Cell viability (CellTiter-Glo) and HSA synergy model, AsPC-1; assay type: cell-based
Protocol: (§1) Cell lines were seeded in complete growth media (RPMI-1640 or DMEM with 10% Fetal Bovine Serum and 1% Penicillin/Streptomycin) and allowed to adhere overnight in a 37° C. and 5% CO2 humidified incubator. The following day compounds were added at the indicate concentrations and incubated for a further 5 days. The number of viable cells in each well were assessed with Promega CellTiter-Glo® reagent according to manufacturer instructions. The cell viability was normalized to DMSO controls. The cell viability as a function of compound concentrations were plotted using GraphPad Prism analyzed using the Combenefit software package (Di Veroli G Y, Fornari C, Wang D, Mollard S, Bramhall J L, Richards F M, Jodrell D I. Combenefit: an interactive platform for the analysis and visualization of drug combinations. Bioinformatics. 2016 Sep. 15; 32(18):2866-8. doi: 10.1093/bioinformatics/btw230) to assess the synergy according to the highest single agent (HSA) synergy model (Borisy A A, Elliott P J, Hurst N W, Lee M S, Lehar J, Price E R, Serbedzija G, Zimmermann G R, Foley M A, Stockwell B R, Keith C T. Systematic discovery of multicomponent therapeutics. Proc Natl Acad Sci USA. 2003 Jun. 24; 100(13):7977-82. doi: 10.1073/pnas.1337088100)).
The KRASG12D-mutant cell line AsPC-1 was grown in RPMI-1640 supplemented with 10% fetal bovine serum and 1% penicillin/streptomycin. 2500 cells were seeded in 0.15 mL in the wells of a tissue culture-treated 96-well plate. After overnight incubation, compounds were added at the indicated concentration and incubated for a further 120 hours. Cell viability was assessed with Promega CellTiter Glo reagent, and the relative cell viability was plotted as a function of the concentration of (FIG. 4A and FIG. 4G) MRTX1133 or (FIG. 4D) MRTX-282 in combination with the indicated concentration to Compound A (FIG. 4A and FIG. 4D) or Compound D (FIG. 4G), both strong hydrolyzers. The synergy between (FIG. 4B and FIG. 4H) MRTX1133 or (FIG. 4E) MRTX-282 and Compound A (FIGS. 4B and 4E) or Compound D (FIG. 4H) was assessed by the HAS synergy model. Representative points of synergistic drug combination between (FIG. 4C and FIG. 4I) MRTX1133 or (FIG. 4F) MRTX-282 and Compound A (FIG. 4C and FIG. 4F) or Compound D (FIG. 4I) are highlighted.
The KRASG12D-mutant cell line AsPC-1 was grown in RPMI-1640 supplemented with 10% fetal bovine serum and 1% penicillin/streptomycin. 2000 cells were seeded in 0.15 mL in the wells of a tissue culture-treated 96-well plate. After overnight incubation, compounds were added at the indicated concentration and incubated for a further 120 hours. Cell viability was assessed with Promega CellTiter Glo reagent, and the relative cell viability was plotted as a function of the concentration of pan KRAS-IN-1 in combination with the indicated concentration to Compound D (FIG. 11A) or Compound C (FIG. 11D), both strong hydrolyzers. The synergy between pan KRAS-IN-1 and Compound D (FIG. 11B) or Compound C (FIG. 11E) was assessed by the HAS synergy model. Representative points of synergistic drug combination between pan KRAS-IN-1 and Compound D (FIG. 11C) or Compound C (FIG. 11F).

[2] = tested on: KRASG12V-mutant cell line Capan-2; test: Cell viability (CellTiter-Glo) and HSA synergy model, Capan-2; assay type: cell-based; details: in combination with pan KRAS-IN-1, 120 hours
Protocol: as §1
The KRASG12V-mutant cell line Capan-2 was grown in RPMI-1640 supplemented with 10% fetal bovine serum and 1% penicillin/streptomycin. […]

[3] = tested on: KRASG12R-mutant cell line PSN1; test: Cell viability (CellTiter-Glo) and HSA synergy model, PSN1; assay type: cell-based; details: in combination with pan KRAS-IN-1, 120 hours
Protocol: as §1
The KRASG12R-mutant cell line PSN1 was grown in RPMI-1640 supplemented with 10% fetal bovine serum and 1% penicillin/streptomycin. […]

[4] = tested on: KRASG12C-mutant cell line H358; test: Cell viability (CellTiter-Glo) and HSA synergy model, H358; assay type: cell-based; details: in combination with pan KRAS-IN-1, 120 hours
Protocol: as §1
The KRASG12C-mutant cell line H358 was grown in RPMI-1640 supplemented with 10% fetal bovine serum and 1% penicillin/streptomycin. […]

[5] = tested on: RAS wild-type cell line, HaCat; test: Cell viability (CellTiter-Glo) and HSA synergy model, HaCat control; assay type: cell-based, human
Protocol: as §1
The KRASG12D-mutant cell line Gp2D was grown in RPMI-16 40 supplemented with 10% fetal bovine serum and 1% penicillin/streptomycin. […]

[6] = tested on: complexes between KRAS proteins and the RAS-binding domain (RBD) of the RAF1 kinase; test: Intracellular RAS-RAF complex reporter assay (nanoBRET) in U2OS cells, multiple KRAS variants; assay type: cell-based; details: 4 hours
Protocol: A cellular assay was used to measure complexes between KRAS proteins and the RAS-binding domain (RBD) of the RAF1 kinase by nanoluciferase bioluminescence energy transfer (nanoBRET™) U2OS cells were seeded at confluence in the 3 mL of DMEM supplemented with 10% fetal bovine serum and 1% penicillin/streptomycin (approximately 1 million cells per well). The following day, each well was transfected with 50 ng of a plasmid encoding N-terminal nanoluciferase-tagged KRAS4B and 2950 ng of a plasmid encoding a C-terminal HaloTag® RAF1 RBD (residues 51-149) using FuGENE HD reagent according to manufacturer instructions. The following day, each transfected cell pool was transferred to 36 wells of a white 96-well plate in media consistiting of OptiMem phenol-red free supplemented with 4% fetal bovine serum, 1% penicillin/streptomycin, and 100 nM of HaloTag® NanoBRET™ 618 Ligand. The following day, Vivazine™ nanoluciferase substrate and compounds were added at the indicated concentration. After 4 hours of incubation, the emitted light at 460 and 618 nm was measured using a PerkinElmer Envision plate reader. The luminescence intensity at 618 nm relative to 460 nm is proportional to the number of complexes between the KRAS protein and the RBD of RAF1, a surrogate measure of the levels of active KRAS.

[7] = tested on: GTP-loaded KRAS proteins (residue 1-169 of KRAS4B); test: RAS GTP hydrolysis rate assay (GTPase-Glo) with cyclophilin A; assay type: biochemical; details: all RAS mutants except those with mutations of the Q61 residue; 10 μM compound, 25 μM cyclophilin A, 37° C.
Protocol: (§2) The rate of RAS GTP hydrolysis was assayed in the presence of various KRAS mutations. To assess GTP hydrolysis activity, recombinant KRAS proteins (residue 1-169 of KRAS4B) were expressed in E. coli and purified using a TEV protease-cleavable His6-tag and Ni^2+ affinity chromatography. The His6 tag was removed by treatment with TEV protease, and the KRAS protein was isolated by passing through a second Ni^2+ column followed by size exclusion chromatography. The purified KRAS proteins were loaded with GTP by incubation for 2 hours on ice with 2 mM GTP and 10 mM Ethylenediaminetetraacetic Acid, followed by addition of 10 mM MgCl2 and incubation on ice for 1 additional hour. The excess GTP was removed by overnight dialysis against buffer (12.5 mM HEPES, 75 mM NaCl, pH 7.5) at 4° C. The GTP-loaded KRAS protein were flash frozen in liquid nitrogen, then stored at −80° C. until use.
(§3) GTP-loaded KRAS proteins (1 μM) were combined with 25 μM of recombinant human cyclophilin A and 10 μM of compound in reaction buffer (12.5 mM HEPES, 75 mM NaCl, 1 mM MgCl2, 1 mM DTT, 1% DMSO, pH 7.5) pre-warmed to 37° C. At fixed time points, aliquots were removed and quenched by heating to 80° C. to denature the proteins, then centrifuged to pellet the protein precipitate. The supernatant was assessed for GTP levels using Promega GTPase-Glo™ according to manufacturer instructions. The levels of GTP as a function of incubation time were fit to a single phase exponential decay to determine the rate constant for hydrolysis activity.

[8] = target: T1, GTP-loaded KRAS proteins (residue 1-169 of KRAS4B) (Homo sapiens, UniProt P01116, G12V); test: as above; assay type: biochemical; details: bound in tri-complex with cyclophilin A; in some embodiments KRAS^G12V is the isoform used
T1 construct: recombinant KRAS proteins (residue 1-169 of KRAS4B); His6 (TEV protease-cleavable) (cleaved yes); made in house; host or cells: E. coli
Protocol: as §2, §3

[9] = target: T2, KRAS^WT-RAF1 RBD complex (Homo sapiens, UniProt P01116); test: Intracellular RAS-RAF complex reporter assay (nanoBRET) in U2OS cells, KRAS^WT; assay type: cell-based; details: 4 hours
T2 construct: expressed in transfected cells; host or cells: U2OS
Protocol: A cellular assay was used to measure complexes between KRAS proteins and the RAS-binding domain (RBD) of the RAF1 kinase by nanoluciferase bioluminescence energy transfer (nanoBRET™) U2OS cells were seeded at confluence in the 3 mL of DMEM supplemented with 10% fetal bovine serum and 1% penicillin/streptomycin (approximately 1 million cells per well). […] The following day, Vivazine™ nanoluciferase substrate and compounds were added at the indicated concentration. After 4 hours of incubation, the emitted light at 460 and 618 nm was measured using a PerkinElmer Envision plate reader. The luminescence intensity at 618 nm relative to 460 nm is proportional to the number of complexes between the KRAS protein and the RBD of RAF1, a surrogate measure of the levels of active KRAS.

[10] = AsPC-1, in combination with pan KRAS-IN-1, 120 hours

| RAS GTP hydrolysis in various RAS mutants in the presence of compound [7] | hydrolyzer class: RAS(ON) GTP hydrolysis rate relative to the intrinsic hydrolysis rate [8] | potency for inhibition of RAS-RAF complexes vs KRAS^WT, relative to the other KRAS variants [9] | SMILES | synergy on cell viability (HSA synergy model) [1, 10] | synergy on cell viability (HSA synergy model) [2] | synergy on cell viability (HSA synergy model) [3] | synergy on cell viability (HSA synergy model) [4] | synergy on cell viability (HSA synergy model) ([1]; AsPC-1, in combination with MRTX1133, 120 hours) | synergy on cell viability (HSA synergy model) ([5]; in combination with MRTX1133) | synergy on cell viability (HSA synergy model) ([5]; in combination with MRTX-282) | potency for inhibition of RAS-RAF complexes across multiple KRAS variants [6] |
| --- | --- | --- | --- | --- | --- | --- | --- | --- | --- | --- | --- |
| – | – | – | CCn1c(-c2cc(N3CCN(C)CC3)cnc2[C@H](C)OC)c2c3cc(ccc31)CCCC[C@H](NC(=O)[C@H]1C[C@@H]1C)C(=O)N1CCC[C@H](N1)C(=O)OCC(C)(C)C2 (atropisomer, axis not shown) [compound 3] | synergistic | synergistic | synergistic | synergistic | – | – | – | – |
| – | – | – | CCn1c(-c2cc(N3CCN(C)CC3)cnc2[C@H](C)OC)c2c3cc(ccc31)[C@@H]1C[C@H]1CC[C@H](NC(=O)[C@H]1[C@H](C)[C@@H]1C)C(=O)N1CCC[C@H](N1)C(=O)OCC(C)(C)C2 (atropisomer, axis not shown) [compound 6] | synergistic | synergistic | synergistic | synergistic | synergistic | no synergy | no synergy | – |
| increased hydrolysis | 8 (Compound E) Moderate | modestly lower potency | CCn1c(-c2cc(N3CCN(C4CC4)CC3)cnc2[C@H](C)OC)c2c3cc(ccc31)-c1csc(n1)C[C@H](NC(=O)[C@H]1[C@@H]3COC[C@@H]31)C(=O)N1CCC[C@H](N1)C(=O)OCC(C)(C)C2 (atropisomer, axis not shown) [compound 8] | – | – | – | – | – | – | – | roughly similar potency |
